From patent US11072602B2, “Antidiabetic heterocyclic compounds” (Merck Sharp & Dohme Corp., priority 2016, dated 2021)

These molecules were tested against T1, human GPR40 (Homo sapiens, UniProt O14842) (assay: Inositol Phosphate Turnover (IP1) Assay). Settings: HEK cells stably expressing human GPR40, 7500 cells per well, CisBio IP-One kit.
T1 construct: expressed in transfected cells
Format: cell-based
Procedure: Human GPR40 stable cell-lines were generated in HEK cells. The expression plasmids were transfected using lipofectamine (Life Technologies) following manufacturer's instructions. Stable cell-lines were generated following drug selection and single cell cloning.
The assay was performed in 384-well format. HEK cells stably expressing human GPR40 were plated at 7500 cells per well in growth medium (DMEM/10% fetal calf serum). Cell plates were then incubated 16 hours at 37 degrees in a 5% CO2 incubator. Measurement of Inositol Phosphate Turnover (IP1) was performed using the CisBio IP-One kit (Part number 62IPAPEB). After the 16 hour incubation, the growth media was removed by centrifugation using the BlueWasher (AusWasher GUI Ver. v1.0.1.8) Protocol #21-“Light Dry” and 10 ul of stimulation buffer (prepared as described in the kit) was added to each well. In a separate plate, compounds were diluted in DMSO (200-fold over the final concentration in the assay well) and 50 nl was acoustically transferred to the appropriate well in the assay cell plate. The plates were then incubated for 60 minutes at 37 degrees in a 5% CO2 incubator. 10 ul of detection buffer (also prepared as described in the IP-One kit) was added to each well and the plates were incubated at room temperature for 60 minutes in the dark. The plates were then read in a Perkin Elmer EnVision or equivalent reader able to measure FRET. Fluorescent ratio of emission at 665 and 620 nm was then converted to IP1 concentration by back calculating from an IP1 standard curve prepared at the time of the assay. Data was normalized to % activity using a reference compound and EC50s determined using a standard 4-parameter fit.

T1 sequence (O14842 whole entry): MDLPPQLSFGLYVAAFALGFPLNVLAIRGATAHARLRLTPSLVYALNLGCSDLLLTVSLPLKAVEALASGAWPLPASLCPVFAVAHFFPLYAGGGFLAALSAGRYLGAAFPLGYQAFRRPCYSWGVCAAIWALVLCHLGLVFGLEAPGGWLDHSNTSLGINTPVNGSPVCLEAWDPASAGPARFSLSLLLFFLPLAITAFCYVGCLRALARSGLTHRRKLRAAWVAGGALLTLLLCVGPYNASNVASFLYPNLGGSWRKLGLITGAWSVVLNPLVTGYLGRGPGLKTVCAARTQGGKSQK

Row | SMILES | EC50
1 | C[C@H](C(=O)O)[C@H](c1ccc2c(c1)OC(C1[C@@H]3CC[C@@H]1CN([C@@H](C)c1cc(F)ccc1C(F)(F)F)C3)CC2)C1CC1 (single isomer, unassigned) [Example 30, (2S,3R)-3-cyclopropyl-3-((2R or 2S)-2-((1R,5S)-3-((S)-1-(5-fluoro-2-(tri-fluoromethyl)phenyl)eth-yl)-3-azabicyclo[3.2.1]-octan-8-yl)chroman-7-yl)-2-methylpropanoic acid] | 453 nM
2 | C[C@H](C(=O)O)[C@H](c1ccc2c(c1)OC(C1[C@@H]3CC[C@@H]1CN([C@@H](C)c1cc(F)ccc1C(F)(F)F)C3)CC2)C1CC1 (single isomer, unassigned) [Example 31, (2S,3R)-3-cyclopropyl-3-((2R or 2S)-2-((1R,5S)-3-((S)-1-(5-fluoro-2-(trifluoromethyl)phenyl)ethyl)-3-azabicyclo[3.2.1]-octan-8-yl)chroman-7-yl)-2-methylpropanoic acid] | 32.6 nM
3 | CC(C(=O)O)C(c1ccc2c(c1)OC(C1CC3CCCC(C1)N3C(C)c1cc(F)ccc1C(F)(F)F)CC2)C1CC1 (single isomer, unassigned) [Example 34] | 29.4 nM
4 | CC(C(=O)O)C(c1ccc2c(c1)OC(C1CC3CCCC(C1)N3C(C)c1cc(F)ccc1C(F)(F)F)CC2)C1CC1 (single isomer, unassigned) [Example 35] | 90.9 nM
5 | CC(c1cc(Cl)ccc1C(F)(F)F)N1C[C@H]2CC1CC2C1CCc2ccc([C@H](C3CC3)[C@H](C)C(=O)O)cc2O1 (single isomer, unassigned) [Example 36, (2S,3R)-3-((S or R)-2-((R or S, R or S)-2-(1-(5-chloro-2-(trifluoromethyl)-phenyl)-ethyl)-2-azabicyclo[2.2.1]heptan-5-yl)chroman-7-yl)-3-cyclopropyl-2-methylpropanoic Acid] | 12.3 nM
6 | CC(c1cc(F)ccc1OC(F)(F)F)N1CC2CC1CC2C1CCc2ccc([C@H](C3CC3)[C@H](C)C(=O)O)cc2O1 (single isomer, unassigned) [Example 37, (2S,3R)-3-cyclopropyl-3-((R or S)-2-((R or S,R or S)-2-((RS)-1-(5-fluoro-2-(trifluoro-methoxy)-phenyl)ethyl)-2-aza-bicyclo[2.2.1]heptan-5-yl)-chroman-7-yl)-2-methyl-propanoic acid] | 71.4 nM
7 | C[C@H](C(=O)O)[C@H](c1ccc2c(c1)OC(C13CCN([C@H](C)c4cc(F)ccc4OC(F)(F)F)C(C1)C3)CC2)C1CC1 (single isomer, unassigned) [Example 43] | 60.6 nM
8 | C[C@H](C(=O)O)[C@H](c1ccc2c(c1)OC(C13CCN([C@H](C)c4cc(F)ccc4OC(F)(F)F)C(C1)C3)CC2)C1CC1 (single isomer, unassigned) [Example 44] | 2.14 nM
9 | C[C@H](C(=O)O)[C@H](c1ccc2c(c1)OC(C1C3COCC1CN([C@H](C)c1cc(C(F)(F)F)ccc1C(F)(F)F)C3)CC2)C1CC1 (stereo partly drawn) [Example 3, (2S,3R)-3-(2-((1R,5S)-7-((R)-1-(2,5-bis(trifluoromethyl)phenyl)ethyl)-3-oxa-7-azabicyclo[3.3.1]nonan-9-yl)chroman-7-yl)-3-cyclopropyl-2-methylpropanoic acid] | 20.3 nM
10 | C[C@H](C(=O)O)[C@H](c1ccc2c(c1)OC(C1C3COCC1CN([C@H](C)c1cc(C(F)(F)F)ccc1C(F)(F)F)C3)CC2)C1CC1 (stereo partly drawn) [Example 4, (2S,3R)-3-(2-((1R,5S)-7-((R)-1-(2,5-bis(trifluoromethyl)phenyl)ethyl)-3-oxa-7-azabicyclo[3.3.1]nonan-9-yl)chroman-7-yl)-3-cyclopropyl-2-methylpropanoic acid] | 36.6 nM
11 | C[C@H](C(=O)O)[C@H](c1ccc2c(c1)OC(C1C3COCC1CN([C@@H](C)c1cc(C(F)(F)F)ccc1C(F)(F)F)C3)CC2)C1CC1 (stereo partly drawn) [Example 5, (2S,3R)-3-(2-((1R,5S)-7-((S)-1-(2,5-bis(trifluoro-methyl)phenyl)ethyl)-3-oxa-7-azabicyclo[3.3.1]-nonan-9-yl)chroman-7-yl)-3-cyclopropyl-2-methyl-propanoic acid] | 33.8 nM
12 | C[C@H](C(=O)O)[C@H](c1ccc2c(c1)OC(C1C3COCC1CN([C@@H](C)c1cc(C(F)(F)F)ccc1C(F)(F)F)C3)CC2)C1CC1 (stereo partly drawn) [Example 6, (2S,3R)-3-(2-((1R,5S)-7-((S)-1-(2,5-bis(trifluoro-methyl)phenyl)ethyl)-3-oxa-7-azabicyclo[3.3.1]-nonan-9-yl)chroman-7-yl)-3-cyclopropyl-2-methyl-propanoic acid] | 21.5 nM
13 | C[C@H](C(=O)O)[C@H](c1ccc2c(c1)OC(C1CC3CCC(C1)N3[C@@H](C)c1cc(C(F)(F)F)ccc1C(F)(F)F)CC2)C1CC1 (stereo partly drawn) [Example 13, (2S,3R)-3-(2-((1R5S)-8-((S)-1-(2,5-bis(trifluoromethyl)phenyl)ethyl)-8-azabicyclo[3.2.1]octan-3-yl)chroman-7-yl)-3-cyclopropyl-2-methylpropanoic Acid] | 11.9 nM
14 | C[C@H](C(=O)O)[C@H](c1ccc2c(c1)OC(C1CC3CCC(C1)N3[C@H](C)c1cc(C(F)(F)F)ccc1C(F)(F)F)CC2)C1CC1 (stereo partly drawn) [Example 14, (2S,3R)-3-(2-((1R,5S)-8-((R)-1-(2,5-bis(trifluoro-methyl)phenyl)ethyl)-8-azabicyclo[3.2.1]octan-3-yl)chroman-7-yl)-3-cyclopropyl-2-methyl-propanoic acid] | 11.1 nM
15 | C[C@H](C(=O)O)[C@H](c1ccc2c(c1)OC(C1CC3CCC(C1)N3[C@H](C)c1cc(F)ccc1C(F)(F)F)CC2)C1CC1 (stereo partly drawn) [Example 15, (2S,3R)-3-cyclopropyl-3-(2-((1R,5S)-8-((R)-1-(5-fluoro-2-(trifluoromethyl)-phenyl)ethyl)-8-aza-bicyclo[3.2.1]octan-3-yl)chroman-7-yl)-2-methylpropanoic acid] | 17.5 nM
16 | C[C@H](C(=O)O)[C@H](c1ccc2c(c1)OC(C1C[C@@H]3C[C@@H]1CN3[C@@H](C)c1cc(C(F)(F)F)ccc1C(F)(F)F)CC2)C1CC1 (stereo partly drawn) [Example 16, (2S,3R)-3-(2-((1S,4S)-2-((S)-1-(2,5-bis(trifluoromethyl)phenyl)ethyl)-2-aza-bicyclo-[2.2.1]heptan-5-yl)chroman-7-yl)-3-cyclopropyl-2-methylpropanoic Acid] | 1.28 nM
17 | C[C@H](C(=O)O)[C@H](c1ccc2c(c1)OC(C1CC3CC1CN3[C@H](C)c1cc(C(F)(F)F)ccc1C(F)(F)F)CC2)C1CC1 (stereo partly drawn) [Example 17, (2S,3R)-3-(2-((1S,4S)-2-((R)-1-(2,5-bis(trifluoromethyl)-phenyl)ethyl)-2-azabicyclo-[2.2.1]heptan-5-yl)chroman-7-yl)-3-cyclopropyl-2-methyl-propanic acid] | 0.688 nM
18 | C[C@H](C(=O)O)[C@H](c1ccc2c(c1)OC(C1CC3CC1CN3[C@@H](C)c1cc(F)ccc1C(F)(F)F)CC2)C1CC1 (stereo partly drawn) [Example 18, (2S,3R)-3-cyclopropyl-3-(2-((1S,4S)-2-((S)-1-(5-fluoro-2-(trifluoromethyl)phenyl)ethyl)-2-azabicyclo[2.2.1]heptan-5-yl)chroman-7-yl)-2-methyl-propanoic acid] | 4.2 nM
19 | C[C@H](C(=O)O)[C@H](c1ccc2c(c1)OC(C1CC3CC1CN3[C@@H](C)c1cc(F)ccc1C(F)(F)F)CC2)C1CC1 (stereo partly drawn) [Example 19, (2S,3R)-3-cyclopropyl-3-(2-((1S,4S)-2-((S)-1-(5-fluoro-2-(trifluoromethyl)phenyl)ethyl)-2-azabicyclo[2.2.1]heptan-5-yl)chroman-7-yl)-2-methyl-propanic acid] | 2.62 nM
20 | C[C@H](C(=O)O)[C@H](c1ccc2c(c1)OC(C1CC3C[C@@H]1CN3[C@@H](C)c1cc(F)ccc1C(F)(F)F)CC2)C1CC1 (stereo partly drawn) [Example 38, (2S,3R)-3-cyclopropyl-3-(2-((4S)-2-((S)-1-(5-fluoro-2-(trifluoromethyl)phenyl)ethyl)-2-azabicyclo[2.2.1]heptan-5-yl)chroman-7-yl)-2-methyl-propanoic acid] | 10.6 nM
21 | C[C@H](C(=O)O)[C@H](c1ccc2c(c1)OC(C13CCN([C@@H](C)c4cc(F)ccc4OC(F)(F)F)C(C1)C3)CC2)C1CC1 (stereo partly drawn) [Example 42] | 2.09 nM
